Reference: paper PMC11484942, “Rumicidins are a family of mammalian host-defense peptides plugging the 70S ribosome exit tunnel” (Nature Communications, 2024)
Ends that are not written are not given here.

Key:
[1] = test system: E. coli 1057 R2 (rpoS^Q3stop, macB^N470D); conditions: MHB + 0.9% NaCl
Procedure: Minimum inhibitory concentrations (MIC) were determined by broth microdilution assay based on Clinical and Laboratory Standards Institute (CLSI) guidelines using BSA in the growth medium to minimize AMP nonspecific adsorption. Bacterial test cultures were grown in the Mueller-Hinton broth (MHB, Sigma) at 37 °C to mid-log phase and then diluted with the 2× MH medium supplemented with 1.8% NaCl (or without salt) so that to reach a final cell concentration of 10^6 CFU/mL. 50 µL of the obtained bacterial suspension were added to aliquots of 50 µL of the peptide solutions serially diluted with sterilized 0.1% bovine serum albumin (BSA) in 96-well flat-bottom polystyrene microplates (Eppendorf #0030730011). […] To verify MIC values, the respiratory activity of the bacteria was determined. Briefly, 5 µL of 0.5 mg/mL resazurin (Sigma) was added to the wells after 24 h (or after 48 h for M. smegmatis) of incubation, and the plate was incubated for additional 3 h. In some cases, MICs were determined in the Lysogeny Broth (LB) or Middlebrook 7H9 medium. The reduction of resazurin to resorufin was recorded. […] The results were expressed as the median values determined based on at least three independent experiments performed in triplicate.
Resistance induction experiments were performed using the previously described method. This approach allows for monitoring MIC values after each transfer. Briefly, on the first day, the overnight culture of the wild-type bacteria was diluted with the 2× MHB supplemented with 1.8% NaCl (or without salt) to reach a final cell concentration of 10^6 CFU/mL. 50 µL of the obtained bacterial suspension were added to aliquots of 50 µL of the peptide solutions serially diluted with the sterilized 0.1% BSA in 96-well flat-bottom polystyrene microplates. After incubation for 20 ± 2 h at 37 °C and 950 rpm, MICs were determined as described above. For each subsequent daily transfer, 2–4 μL of the inoculum taken from the first well containing a sub-inhibitory drug concentration was diluted with 2 mL of the fresh 2× MHB supplemented with 1.8% NaCl (or without salt). […] Multiple repeated passages in the presence of antimicrobial agents were performed for each bacterial strain during the experiment. Bacteria that grew at the highest concentrations of AMPs on the final day were passaged further 3 times on drug-free agar plates before determining the final MIC value.

[2] = test system: E. coli 1057 WT; test: microbe, parasite or virus in culture; type: cell-based, Escherichia coli; conditions: MHB + 0.9% NaCl
[3] = test system: E. coli BL21 (DE3) Star cell extract; test: Cell-free protein synthesis (coupled transcription/translation) of EGFP; type: biochemical, Escherichia coli; conditions: minimum concentration that provides >90% inhibition of the EGFP synthesis in the CFPS system
Procedure: To investigate the effects of AMPs and antibiotics on the coupled transcription/translation process, the test compounds were added to a cell-free protein synthesis (CFPS) reaction mix with a plasmid encoding enhanced green fluorescent protein (EGFP) variant (F64L, S65T, Q80R, F99S, M153T, and V163A) under control of the T7 promoter. The cell lysate was prepared using the E. coli BL21 Star (DE3) overexpressed T7 RNA polymerase as described previously. The reaction mix consisted of the following components: 1.2 mM ATP, 0.8 mM UTP, 0.8 mM GTP, 0.8 mM CTP, 2 mM of each of 20 proteinogenic amino acids, 1.5 mM spermidine, 1 mM putrescine dihydrochloride, 0.06647 mM calcium folinate, […] tRNA from the E. coli MRE 600 strain, 0.33 mM NAD, 120 mM HEPES-KOH (pH 8.0), 10 mM ammonium glutamate, 175 mM potassium glutamate, 60 mM glucose, 15 mM magnesium glutamate, 2% PEG 8000, 25% E. coli BL21 Star (DE3) cell lysate, 1 ng/ml plasmid DNA. The reaction volume was 50 µL. The peptides were dissolved in PBS with the addition of 0.1% BSA. Erythromycin was used in the positive control reactions. The fluorescence of the sample without inhibitor was set as the 100% value. The reaction proceeded for 2 h in 96-well v-bottom black polystyrene microplates (Eppendorf #0030601904) in a plate shaker (30 °C, 1000 rpm). The fluorescence of the synthesized EGFP was measured with the microplate reader AF2200 (λEx = 488 nm, λEm = 510 nm; Eppendorf). The experimental data were obtained from at least two independent experiments performed in triplicate. Non-linear regression curves were generated using GraphPad Prism v.8.0.1 (GraphPad Software Inc.).

[4] = test system: E. coli BW25113; test: MIC broth microdilution; type: cell-based, Escherichia coli; conditions: for Minimum inhibitory concentration MHB + 0.9% NaCl: Mueller-Hinton broth + 0.9% NaCl; for Minimum inhibitory concentration MHB + 0.9% NaCl / Minimum inhibitory concentration MHB: 24 h 37 °C, median of ≥3 experiments; for Minimum inhibitory concentration MHB: Mueller-Hinton broth without salt; for fold change of MIC vs wild-type rumicidin-1: N-terminal shortening
Procedure: (§1) The reduction of resazurin to resorufin was recorded.

[5] = test system: S. aureus ATCC 29213; type: cell-based, Staphylococcus aureus; conditions: ATCC 29213, 24 h
Procedure: as §1

[6] = test system: Mycobacterium smegmatis mc(2)155; type: cell-based; conditions: Mycobacterium mc(2)155, 24 h
Procedure: as §1

[7] = test system: HEK293T (transformed embryonic kidney cells); test: MTT cytotoxicity; type: cell-based, human; conditions: mean
Procedure: (§2) Hemolytic activity of the peptides was tested against the fresh suspension of human red blood cells (hRBC) using the hemoglobin release assay as described previously. Two experiments were performed with the hRBC from blood samples collected from healthy donors by certified medical personnel upon informed written consent. All procedures were approved by the Ethics Committee of the Institute of Experimental Medicine (protocol 1/20 of 2/27/2020) and comply with the ethical principles of the Declaration of Helsinki. The quantitative data were represented as average means with standard deviations. The colorimetric 3-(4,5-dimethylthiazol-2-yl)-2,5-diphenyltetrazolium bromide (MTT) dye reduction assay was used to determine cytotoxicity of the peptides against human keratinocyte cell line (HaCaT) and transformed human embryonic kidney cells (HEK293T). Both cell lines were purchased from American Type Culture Collection (ATCC). 10^4 cells per well in Dulbecco’s modified Eagle’s medium (DMEM/F12) supplemented with 10% fetal bovine serum (FBS, Invitrogen) were placed into 96-well plates and then cultured in the CO2-incubator (5% CO2, 37 °C). After the media were removed, the peptides were dissolved in 100 µL of the same medium and added to cell cultures at different final concentrations. 20 h later, 20 μL of MTT (5 mg/mL, Sigma) was added to each well, and the plates were incubated for 4 h at 37 °C. Then, the media were discarded and 100 µL DMSO-isopropanol mixture at a ratio of 1:1 (v/v) was added to each well to dissolve the crystallized formazan. The absorbance at 570 nm was measured by a microplate reader AF2200 (Eppendorf). An optical density in the wells containing cells cultured without the peptides was assumed to represent 100% cell viability. Two independent experiments were performed for each peptide.

[8] = test system: HaCaT (keratinocytes); test: MTT cytotoxicity; type: cell-based, human; conditions: mean
Procedure: as §2

RRLRPRRPRLPRPRPRPRPRPR [mini-ChBac7.5Nα]
MIC [1]: > 32 µM

Gentamycin
MIC [2]: 2 µM
MIC [1]: 2 µM

RPRPPKPRPPHRPRPRPRPWFPPRFP [Rum-1[4-29]]
Protein synthesis inhibition [3]: 4 µM
Minimum inhibitory concentration MHB + 0.9% NaCl [4]: 16 µM
Minimum inhibitory concentration MHB [4]: 4 µM
fold change of MIC vs wild-type rumicidin-1 [4]: two-fold

RPRPRPRPWFPPRFP [Rum-1[15-29]]
Protein synthesis inhibition [3]: 256 µM
Minimum inhibitory concentration MHB + 0.9% NaCl [4]: > 256 µM
Minimum inhibitory concentration MHB [4]: 32 µM

O=C(N[C@H](CO)[C@H](O)c1ccc([N+](=O)[O-])cc1)C(Cl)Cl [Chloramphenicol]
MIC ([2]; Escherichia coli, 1057WT, 24 h): 16 µM

RDRRRRPPRPRPPHRPRPRPLPWFPPRFP [Rumicidin-2]
MIC [1]: > 64 µM
MIC S. aureus ATCC 29213 [5]: > 32 µM
Minimum inhibitory concentration (MIC) [6]: 1 µM

CN[C@@H]1[C@H](O)[C@H](NC)[C@H]2O[C@@]3(O)C(=O)C[C@@H](C)O[C@H]3O[C@@H]2[C@H]1O [Spectinomycin]
MIC ([2]; Escherichia coli, 1057WT, 24 h): 64 µM

RARRPRPPKPRPPHRP [Rum-1[1-16]]
Minimum inhibitory concentration MHB + 0.9% NaCl [4]: > 256 µM
Minimum inhibitory concentration MHB [4]: 256 µM

RARRPRPPKPRPPHRPRPRPRP [Rum-1[1-22]]
Minimum inhibitory concentration MHB + 0.9% NaCl [4]: 256 µM
Minimum inhibitory concentration MHB [4]: 16 µM

RPPKPRPPHRPRPRPRPWFPPRFP [Rum-1[6-29]]
Protein synthesis inhibition [3]: 4 µM
Minimum inhibitory concentration MHB + 0.9% NaCl [4]: 16 to 32 µM
Minimum inhibitory concentration MHB [4]: 4 µM
fold change of MIC vs wild-type rumicidin-1 [4]: two-fold

CN(C)[C@@H]1C(O)=C(C(N)=O)C(=O)[C@@]2(O)C(O)=C3C(=O)c4c(O)cccc4[C@@](C)(O)[C@H]3C[C@@H]12 [Tetracycline]
MIC ([2]; Escherichia coli, 1057WT, 24 h): 4 µM

NC[C@H]1O[C@H](O[C@H]2[C@H](O)[C@@H](O[C@H]3O[C@H](CO)[C@@H](O)[C@H](N)[C@H]3O)[C@H](N)C[C@@H]2N)[C@H](O)[C@@H](O)[C@@H]1O [Kanamycin]
MIC [2]: 8 µM
MIC [1]: 8 µM

RGGRLCYCRRRFCVCVGR (Protegrin-1; UniProt P32194 131-148, looked up)
MIC [2]: 0.25 µM
MIC [1]: 0.25 µM

CCC[C@@H]1C[C@@H](C(=O)N[C@@H]([C@H]2O[C@H](SC)[C@H](O)[C@@H](O)[C@H]2O)[C@H](C)Cl)N(C)C1 [Clindamycin]
MIC ([2]; Escherichia coli, 1057WT, 24 h): 128 µM

CO[C@H]1/C=C/O[C@@]2(C)Oc3c(C)c(O)c4c(O)c(c(/C=N/N5CCN(C)CC5)c(O)c4c3C2=O)NC(=O)/C(C)=C\C=C\[C@H](C)[C@H](O)[C@@H](C)[C@@H](O)[C@@H](C)[C@H](OC(C)=O)[C@@H]1C [Rifampicin]
MIC ([2]; Escherichia coli, 1057WT, 24 h): 32 µM

CO/N=C(\C(=O)N[C@@H]1C(=O)N2C(C(=O)O)=C(CSc3nc(=O)c(=O)[nH]n3C)CS[C@H]12)c1csc(N)n1 [Ceftriaxone]
MIC ([2]; Escherichia coli, 1057WT, 24 h): 128 µM

PHRPRPRPRPWFPPRFP [Rum-1[13-29]]
Protein synthesis inhibition [3]: 64 µM
Minimum inhibitory concentration MHB + 0.9% NaCl [4]: > 256 µM
Minimum inhibitory concentration MHB [4]: 32 µM

CC1(C)S[C@@H]2[C@H](NC(=O)[C@H](N)c3ccccc3)C(=O)N2[C@H]1C(=O)O [Ampicillin]
MIC ([2]; Escherichia coli, 1057WT, 24 h): > 128 µM

[H]/N=C(/N)N[C@H]1[C@H](O)[C@@H](O)[C@H](O[C@@H]2O[C@@H](C)[C@](O)(C=O)[C@H]2O[C@@H]2O[C@@H](CO)[C@H](O)[C@@H](O)[C@@H]2NC)[C@@H](N/C(N)=N\[H])[C@@H]1O [Streptomycin]
MIC ([2]; Escherichia coli, 1057WT, 24 h): 4 µM

CC[C@H](C)[C@H](NC(=O)CN)C(=O)NCC(=O)N[C@@H](C)C(=O)N[C@H](C(=O)N[C@@H](CC(C)C)C(=O)N[C@@H](CCCCN)C(=O)N[C@H](C(=O)N[C@@H](CC(C)C)C(=O)N[C@H](C(=O)N[C@H](C(=O)NCC(=O)N[C@@H](CC(C)C)C(=O)N1CCC[C@H]1C(=O)N[C@@H](C)C(=O)N[C@@H](CC(C)C)C(=O)N[C@H](C(=O)N[C@@H](CO)C(=O)N[C@@H](Cc1c[nH]c2ccccc12)C(=O)N[C@H](C(=O)N[C@@H](CCCCN)C(=O)N[C@@H](CCCNC(=N)N)C(=O)N[C@@H](CCCCN)C(=O)N[C@@H](CCCNC(=N)N)C(=O)N[C@@H](CCC(N)=O)C(=O)N[C@@H](CCC(N)=O)C(N)=O)[C@@H](C)CC)[C@@H](C)CC)[C@@H](C)O)[C@@H](C)O)C(C)C)C(C)C [Melittin]
MIC [2]: 8 µM
MIC [1]: 16 µM
HEK293T cell viability ([7]; 0.25 µM): 101.366%
HEK293T cell viability ([7]; 0.5 µM): 102.416%
HEK293T cell viability ([7]; 1 µM): 98.73%
HEK293T cell viability ([7]; 2 µM): 27.546%
HEK293T cell viability ([7]; 4 µM): 9.889%
HEK293T cell viability ([7]; 8 µM): 9.248%
HEK293T cell viability ([7]; 16 µM): 9.026%
HaCaT cell viability ([8]; 0.25 µM): 102.196%
HaCaT cell viability ([8]; 0.5 µM): 104.998%
HaCaT cell viability ([8]; 1 µM): 106.041%
HaCaT cell viability ([8]; 2 µM): 106.484%
HaCaT cell viability ([8]; 4 µM): 67.714%
HaCaT cell viability ([8]; 8 µM): 4.039%
HaCaT cell viability ([8]; 16 µM): 2.958%
HaCaT cell viability ([8]; 32 µM): 4.046%

RPPHRPRPRPRPWFPPRFP [Rum-1[11-29]]
Protein synthesis inhibition [3]: 32 µM
Minimum inhibitory concentration MHB + 0.9% NaCl [4]: 64 µM
Minimum inhibitory concentration MHB [4]: 8 µM
fold change of MIC vs wild-type rumicidin-1 [4]: ≥ 4 fold
